From US12448383B2, “Compounds and methods for treatment of viral infections” (priority 2022, dated 2025)

Assays:
[1] = CC50 MT4 cytotoxicity (Cell-Titer Glo); format: cell-based; settings: human
Procedure: Cytotoxicity of the compounds was determined in uninfected cells using the cell viability reagent in a similar fashion as described before for other cell types (Cihlar et al., Antimicrob Agents Chemother. 2008, 52(2):655-65). HEp-2 (1.5×10^3 cells/well) and MT-4 (2×10^3 cells/well) cells were plated in 384-well plates and incubated with the appropriate medium containing 3-fold serially diluted compound ranging from 15 nM to 100,000 nM. Cells were cultured for 4-5 days at 37° C. Following the incubation, the cells were allowed to equilibrate to 25° C., and cell viability was determined by adding Cell-Titer Glo viability reagent. The mixture was incubated for 10 min, and the luminescence signal was quantified using an Envision plate reader. Untreated cell and cells treated at 2 μM puromycin (Sigma, St. Louis, MO) serve as 100% and 0% cell viability control, respectively. The percent of cell viability was calculated for each tested compound concentration relative to the 0% and 100% controls and the CCso value was determined by non-linear regression as a compound concentration reducing the cell viability by 50%.

[2] = system: Respiratory syncytial virus recombinant with luciferase (RSV-Luc5) in HEp-2 cells; assay: microbe, parasite or virus in culture; format: cell-based; settings: human respiratory syncytial virus, HEp-2, 72 h, read-out: RSV Hep2 EC50
[3] = GI S9 stability - no PMSF; format: in vitro ADME; settings: pH 7.4; human intestinal S9, PMSF-free; read-out: GIS9-HUMAN-NoPMSF T1/2
Procedure: Duplicate aliquots of test compound or positive control substrate (GS-7340) were added to S9 stock diluted with 100 mM phosphate buffered saline, pH 7.4, to obtain a protein concentration of 1.0 mg/mL. The S9 metabolic reactions were initiated by the addition of the substrates to the S9 reaction mixture to a final concentration of 2 μM. At 0, 10, 20, 30, 60 and 120 min, […] aliquots of the reaction mixture were transferred to plates containing […] of IS/Q solution. After quenching, the plates were centrifuged at 3000 g for 30 minutes, and 150 μL aliquots of each supernatant were diluted with 150 μL water. Aliquots ([…]) of the diluted supernatant were analyzed on a Thermo Q-Exactive mass spectrometer as described below. GI S9 Stability—No phenylmethylsulfonyl fluoride (PMSF): Similar to the procedure described above, test compounds were incubated at 2 μM with 1 mg/mL PMSF-free Intestinal S9 fractions. Samples are removed at 6 time points over the course of a 120 min experiment and the parent compound disappreance and reference compound A formation is determined by mass spectrometry.
Example K: Liquid Chromatography/Mass Spectroscopy Methods for S9 and Plasma Stability
Quantification of test compounds, Reference Compound A (S9 stability assay nucleoside metabolite), and controls was performed by analyte/internal standard peak area ratio (PAR) values measured on a Thermo Q-Exactive mass spectrometer coupled to a Dionex UltiMate 3000 HPLC with a Leap Technologies HTC PAL autosampler. The column used for analysis of test compounds and Reference Compound A was a Waters Acquity BEH C18 ([…] particle size, 2.1′50 mm). The column used for control (GS-7340) was a Thermo Hypersil GOLD ([…] particle size, 2.1′50 mm). Mobile phase A consisted of 0.1% (v/v) formic acid in water. Mobile phase B consisted of 0.1% (v/v) formic acid in acetonitrile. Elution of analytes was achieved by a series of linear gradients of acetonitrile in water containing 0.1°(v/v) formic acid. The mass spectrometer was calibrated on a weekly basis and mass tolerance of 5 ppm was used.

[4] = Plasma stability; format: in vitro ADME; design: unit not given here; settings: 37° C., 2 μM substrate
Procedure: At 0.05, 0.5, 1, 2, 3 and 4 hr, […] aliquots of the reaction mixture were transferred to plates containing […] of IS/Q quenching solution. After quenching, the plates were centrifuged at 3000 g for 30 minutes, and 150 μL supernatant was diluted with 150 μL water. Aliquots ([…]) of the diluted supernatant were analyzed on a Thermo Q-Exactive mass spectrometer as described below.
Mobile phase A consisted of 0.1% (v/v) formic acid in water. Mobile phase B consisted of 0.1% (v/v) formic acid in acetonitrile. Elution of analytes was achieved by a series of linear gradients of acetonitrile in water containing 0.1°(v/v) formic acid. The mass spectrometer was calibrated on a weekly basis and mass tolerance of 5 ppm was used.

[5] = system: SARS Coronavirus 2 recombinant with NanoLuc (SARS-CoV2-NLuc) in A549-hACE2 cells; assay: organism not typed; format: cell-based; settings: 48 h; read-out: SARS-CoV2 EC50
[6] = system: Respiratory syncytial virus recombinant with luciferase (RSV-Luc5) in Normal Human Bronchial Epithelial (NHBE) cells; assay: microbe, parasite or virus in culture; format: cell-based; settings: 72 h, read-out: RSV NHBE EC50
[7] = system: Caco-2 cells (clone C2BBe1); assay: CACO-2 permeability; format: in vitro ADME; design: unit not given here; settings: for DM Caco2 A to B: apical to basolateral, donor pH 6.5, receiver pH 7.4; for DM Caco2 B to A: basolateral to apical
Procedure: Pre-plated Caco-2 cells (clone C2BBel) were obtained from Sigma-Aldrich, Inc. (Atlanta, GA). Cell monolayers were grown to confluence on collagen-coated, microporous, polycarbonate membranes in 24-well transwell plates for 21 days. The permeability assay buffer in donor wells was Hanks' balanced salt solution (HBSS) containing 10 mM HEPES and 15 mM glucose at a pH of 6.5 containing 200 μM BNPP. The receiver wells used HBSS buffer containing 10 mM HEPES and 15 mM glucose at a pH of 7.4 and supplemented with 1°% BSA. After an initial equilibration with transport buffer, TEER values were read to test membrane integrity. The experiment was started by the addition of buffers containing test compounds, 200 μl and 1000 μl in the apical and basolateral chamber, respectively. At 0- and 2-hour post dose, 10 μL was sampled from donor compartment and was immediately diluted in 190 μL of 20% methanol. At 1 and 2 hours post dose, 100 μl of solution was taken from the receiver compartments and was immediately diluted in 100 μl of 20% methanol. Removed buffer was replaced with fresh buffer and a correction was applied to all calculations for the removed material. Each compound was tested in 2 separate replicate wells for each condition. All samples were then extracted with 400 μl 100% acetonitrile with internal standard to precipitate protein. Cells were dosed on the apical or basolateral side to determine forward (A to B) and reverse (B to A) permeability. To test for non-specific binding and compound instability, the total amount of drug was quantitated at the end of the experiment and compared to the material present in the original dosing solution as a percent recovery. […] Samples were analyzed by LC-MS/MS.

SMILES: N#C[C@@]1(c2ccc3c(N)ncnn23)O[C@H](COC(=O)OC(CF)CF)[C@@H](O)[C@H]1O [Compound 94, ((2R,3S,4R,5R)-5-(4-aminopyrrolo[2,1-f][1,2,4]triazin-7-yl)-5-cyano-3,4-dihydroxytetrahydrofuran-2-yl)methyl (1,3-difluoropropan-2-yl) carbonate]
- CC50 [1]: > 50000 nM
- EC50 [2]: 1020 nM
- half-life at 2 µM [3]: 67.8 s
- STA Human Plasma 37 [4]: 105.4
- EC50 [5]: 3630 nM
- EC50 [6]: 923 nM
- DM Caco2 A to B [7]: 0.13
- DM Caco2 B to A [7]: 2.19

SMILES: CCC(C)(CC)OC(=O)OC[C@H]1O[C@@](C#N)(c2ccc3c(N)ncnn23)[C@H](O)[C@@H]1O [Compound 69, ((2R,3S,4R,5R)-5-(4-aminopyrrolo[2,1-f][1,2,4]triazin-7-yl)-5-cyano-3,4-dihydroaytetrahydrofuran-2-yl)methyl (3-methylpentan-3-yl) carbonate]
- CC50 [1]: > 50000 nM
- EC50 [2]: 1050 nM
- half-life at 2 µM [3]: 2920 s
- STA Human Plasma 37 [4]: 294.49
- EC50 [5]: 2830 nM
- EC50 [6]: 988 nM
- DM Caco2 A to B [7]: 1
- DM Caco2 B to A [7]: 4.74

SMILES: Cc1oc(=O)oc1COC(=O)OC[C@H]1O[C@@](C#N)(c2ccc3c(N)ncnn23)[C@H](O)[C@@H]1O [Compound 26, ((2R,3S,4R,5R)-5-(4-aminopyrrolo[2,1-f][1,2,4]triazin-7-yl)-5-cyano-3,4-dihydroxytetrahydrofuran-2-yl)methyl ((5-methyl-2-oxo-1,3-dioxol-4-yl)methyl) carbonate]
- CC50 [1]: > 50000 nM
- EC50 [2]: 942 nM
- half-life at 2 µM [3]: 29.2 s
- STA Human Plasma 37 [4]: 33.7
- EC50 [5]: 2390 nM
- EC50 [6]: 844 nM
- DM Caco2 A to B [7]: 0.07
- DM Caco2 B to A [7]: 0.36

SMILES: CC1(C)C2CCC1(C)C(OC(=O)OC[C@H]1O[C@@](C#N)(c3ccc4c(N)ncnn34)[C@H](O)[C@@H]1O)C2 (stereo partly drawn) [Compound 71, ((2R,3S,4R,5R)-5-(4-aminopyrrolo[2,1-f][1,2,4]triazin-7-yl)-5-cyano-3,4-dihydroxytetrahydrofuran-2-yl)methyl (1,7,7-trimethylbicyclo[2.2.1]heptan-2-yl) carbonate]
- CC50 [1]: 47800 nM
- EC50 [2]: 3010 nM
- half-life at 2 µM [3]: 1550 s
- STA Human Plasma 37 [4]: 1584
- EC50 [5]: 7820 nM
- EC50 [6]: 532 nM
- DM Caco2 A to B [7]: 4.02
- DM Caco2 B to A [7]: 13.65

SMILES: N#C[C@@]1(c2ccc3c(N)ncnn23)O[C@H](COC(=O)OC2CNC2)[C@@H](O)[C@H]1O [Compound 20, ((2R,3S,4R,5R)-5-(4-aminopyrrolo[2,1-f][1,2,4]triazin-7-yl)-5-cyano-3,4-dihydroxytetrahydrofuran-2-yl)methyl azetidin-3-yl carbonate]
- CC50 [1]: > 50000 nM
- EC50 [2]: 2020 nM
- EC50 [5]: 8980 nM
- EC50 [6]: 4350 nM

SMILES: N#C[C@@]1(c2ccc3c(N)ncnn23)O[C@H](COC(=O)OCC2CCCC2)[C@@H](O)[C@H]1O [Compound 85, ((2R,3S,4R,5R)-5-(4-aminopyrrolo[2,1-f][1,2,4]triazin-7-yl)-5-cyano-3,4-dihydroxytetrahydrofuran-2-yl)methyl (cyclopentylmethyl) carbonate]
- CC50 [1]: > 50000 nM
- EC50 [2]: 166 nM
- half-life at 2 µM [3]: 37.3 s
- STA Human Plasma 37 [4]: 38.6
- EC50 [5]: 417 nM
- EC50 [6]: 776 nM

SMILES: N#C[C@@]1(c2ccc3c(N)ncnn23)O[C@H](COC(=O)OCC2CCCCC2)[C@@H](O)[C@H]1O [Compound 86, ((2R,3S,4R,5R)-5-(4-aminopyrrolo[2,1-f][1,2,4]triazin-7-yl)-5-cyano-3,4-dihydroxytetrahydrofuran-2-yl)methyl (cyclohexylmethyl) carbonate]
- CC50 [1]: > 50000 nM
- EC50 [2]: 371 nM
- half-life at 2 µM [3]: 41 s
- STA Human Plasma 37 [4]: 48.6
- EC50 [5]: 623 nM
- EC50 [6]: 1220 nM

SMILES: CC[C@@H](C)OC(=O)OC[C@H]1O[C@@](C#N)(c2ccc3c(N)ncnn23)[C@H](O)[C@@H]1O [Compound 89, ((2R,3S,4R,5R)-5-(4-aminopyrrolo[2,1-f][1,2,4]triazin-7-yl)-5-cyano-3,4-dihydroxytetrahydrofuran-2-yl)methyl ((R)-sec-butyl) carbonate]
- CC50 [1]: > 50000 nM
- EC50 [2]: 665 nM
- half-life at 2 µM [3]: 35.4 s
- STA Human Plasma 37 [4]: 188.5
- EC50 [5]: 2690 nM
- EC50 [6]: 978 nM

SMILES: CCCCCOC(=O)OC[C@H]1O[C@@](C#N)(c2ccc3c(N)ncnn23)[C@H](O)[C@@H]1O [Compound 27, ((2R,3S,4R,5R)-5-(4-aminopyrrolo[2,1-f][1,2,4]triazin-7-yl)-5-cyano-3,4-dihydroxytetrahydrofuran-2-yl)methyl pentyl carbonate]
- CC50 [1]: > 50000 nM
- EC50 [2]: 145 nM
- EC50 [5]: 658 nM
- EC50 [6]: 1010 nM

SMILES: CC(C)(C)COC(=O)OC[C@H]1O[C@@](C#N)(c2ccc3c(=N)n(COP(=O)(O)OCc4ccccc4)cnn23)[C@H](O)[C@@H]1O [Compound 18, ((2R,3S,4R,5R)-5-(3-((((benzyloxy)(hydroxy)phosphoryl)oxy)methyl)-4-imino-3,4-dihydropyrrolo[2,1-f][1,2,4]triazin-7-yl)-5-cyano-3,4-dihydroxytetrahydrofuran-2-yl)methyl neopentyl carbonate]
- CC50 [1]: > 50000 nM
- EC50 [2]: 2870 nM
- EC50 [5]: 12400 nM
- EC50 [6]: 12100 nM
